Test results as given in patent publication US20260001875A1, “AMINOPYRIMIDINYL DERIVATIVES FOR THE TREATMENT OF PARKINSON'S DISEASE” (UNIVERSITY OF DUNDEE, priority 2022, published 2026).
pEC50: −log10 of the molar value. Like-named read-outs stand apart in the source and are kept apart here.

What was measured:
[1] = tested on: Rab10 pThr73; assay: Rab10 Thr73 dephosphorylation (immunoblot) in LRRK2^G2019S MEFs; type: cell-based; conditions: Mus musculus, read-out: pRab10 inhibited in LRRK2^G2019S MEFs
[2] = tested on: Rab10 pThr73; assay: Rab10 Thr73 dephosphorylation in LRRK2^R1441C MEFs; type: cell-based; conditions: Mus musculus; dose response, 4 h treatment
Text: Primary MEFs were generated as described in a previous study (Wiggin et al., Mol. Cell Biol. 2002 April; 22(8):2871-81.). Briefly, the uterine horn was collected from adult female mice at day E12.5 and transferred to a 10 cm tissue culture dish containing cold PBS. Two forceps were used to tear the yolk sacs to isolate each embryo. Forceps were cleaned thoroughly with 70% ethanol between each embryo isolation. The embryos were culled, and a tissue piece was collected in a PCR tube for genotyping. The red tissue of the embryo, which grows to become the heart and liver, was removed. The remainder of the embryo was minced with a scalpel blade and incubated with 7.5 ml trypsin-EDTA solution for 10 minutes in a 37° C. tissue culture CO2 incubator. The dish was removed from the incubator and checked under a light microscope for single cells. 7.5 ml complete media was added to the trypsinised cells, and the cell suspension was transferred to a 15 ml Falcon tube, centrifuged at 1200 rpm for 5 minutes at room temperature. […]
Culturing and passaging of adherent cell lines were carried out using aseptic technique in CL1 or CL2 (for PBMC isolation) biological safety cabinets. […] The cell pellet was discarded, and supernatant was collected for analysis by quantitative immunoblotting. […] Protein concentrations of cell lysates were determined using the Bradford assay. […]

CNc1nc(Nc2ccc(C(=O)N3CCN(C[C@H]4CC[C@@H](CSC(C)(C)[C@H](NC(=O)C5(F)CC5)C(=O)N5C[C@H](O)CC5C(=O)NCc5ccc(-c6scnc6C)cc5)CC4)CC3)cc2OC)ncc1Cl (stereo partly drawn) [XL01134]
inhibition at 0.033 µM ([1]; 33 nM/4 h treatment): 0 to 70% | inhibition at 0.033 µM ([1]; 33 nM/24 h treatment): 0 to 90%

CNc1nc(Nc2ccc(C(=O)N3CCN(C[C@H]4CC[C@H](CSC(C)(C)[C@H](NC(=O)C5(F)CC5)C(=O)N5C[C@@H](O)CC5C(=O)NCc5ccc(-c6scnc6C)cc5)CC4)CC3)cc2OC)ncc1Cl (stereo partly drawn) [Cis-XL01126, (2S,4S)-1-((R)-3-((((1r,4R)-4-((4-(4-((5-chloro-4-(methylamino)pyrimidin-2-yl)amino)-3-methoxybenzoyl)piperazin-1-yl)methyl)cyclohexyl)methyl)thio)-2-(1-fluorocyclopropane-1-carboxamido)-3-methylbutanoyl)-4-hydroxy-N-(4-(4-methylthiazol-5-yl)benzyl)pyrrolidine-2-carboxamide]
pEC50 [2]: 6.80

CNc1nc(Nc2ccc(C(=O)N3CCN(C[C@H]4CC[C@H](CSC(C)(C)[C@H](NC(=O)C5(F)CC5)C(=O)N5C[C@H](O)CC5C(=O)NCc5ccc(-c6scnc6C)cc5)CC4)CC3)cc2OC)ncc1Cl (stereo partly drawn) [XL01126, (2S,4R)-1-((R)-3-((((1R,4R)-4-((4-(4-((5-chloro-4-(methylamino)pyrimidin-2-yl)amino)-3-methoxybenzoyl)piperazin-1-yl)methyl)cyclohexyl)methyl)thio)-2-(1-fluorocyclopropane-1-carboxamido)-3-methylbutanoyl)-4-hydroxy-N-(4-(4-methylthiazol-5-yl)benzyl)pyrrolidine-2-carboxamide]
pEC50 [2]: 7.52

CNc1nc(Nc2ccc(C(=O)N3CCN(CCOCCOCCSC(C)(C)[C@H](NC(=O)C4(F)CC4)C(=O)N4C[C@H](O)C[C@H]4C(=O)NCc4ccc(-c5scnc5C)cc4)CC3)cc2OC)ncc1Cl [SD75, (2S,4R)-1-((R)-3-((2-(2-(2-(4-(4-((5-chloro-4-(methylamino)pyrimidin-2-yl)amino)-3-methoxybenzoyl)piperazin-1-yl)ethoxy)ethoxy)ethyl)thio)-2-(1-fluorocyclopropane-1-carboxamido)-3-methylbutanoyl)-4-hydroxy-N-(4-(4-methylthiazol-5-yl)benzyl)pyrrolidine-2-carboxamide]
inhibition at 0.033 µM ([1]; 33 nM/4 h treatment): 0 to 60% | inhibition at 0.033 µM ([1]; 33 nM/24 h treatment): 0 to 70%
